Test results as given in patent US8981112B2, “Inhibitors of β-secretase” (Boehringer Ingelheim International GmbH, priority 2012, dated 2015).

Assays:
[1] = target: truncated human beta-secretase, BACE1 (amino acids 1-454) (Homo sapiens (Human), UniProt P56817); test: BACE1 Assay (Assay 1), fluorescence quench assay; format: biochemical; settings: read-out: BACE1 IC50 nM (assay 1)
Experimental: The substrate was dissolved at 1 mg/ml in DMSO.
The assay was performed in the presence of OptiMEM (supernatant collected over 24 h and cleared from cellular debris by centrifugation) containing the ectodomain of BACE1, 25 μl water containing the desired 2-fold concentration of test compound and 2% DMSO, 1 μM substrate peptide, 20 mM NaOAc, pH 4.4, and 0.04% Triton-X100 in a total assay volume of 50 μl in a 384 well plate. In general, 25 μl of compound dilution were given to the plate followed by the addition of 10 μl of BACE1 containing OptiMEM™ diluted 1:10 in water with 0.2% Triton X-100. The reaction was started with the addition of 15 μl substrate in NaOAc buffer. The reaction was incubated at rt (dark) in an Envision® multilabel reader (Perkin Elmer) and the cleavage of the substrate was recorded as kinetic for 60 min at ex: 485 nm, em: 538 nm. Blank wells containing no enzyme were included on each plate.
The intensity of fluorescence was regressed against time in order to derive velocities of reaction in all 384 wells. These velocities were used for calculating percent control using an uninhibited control containing 1% DMSO as 100% and blank control performed in the absence of enzyme as 0%. IC50 values were calculated by fitting percent control vs. test compound concentration using Assay Explorer.

[2] = system: brain amyloid peptides Aβ1-x; test: Rat Brain Aβ Lowering Assay (Assay 5); format: in vivo; settings: 3 hrs after dosing
Experimental: Rat Brain Aβ Lowering Assay (Assay 5)
The animals were sacrificed 3 hrs after dosing, and brains were excised, dissected into cerebellum and left and right cerebra and flash-frozen in liquid nitrogen.
The cerebrum was homogenized (5 volumes per weight) in 20 mM Tris-HCL, pH 8.5, 0.2% Triton-X100 supplemented with protease inhibitors (complete, Roche Applied Science) at 4° C. using a glass Dounce homogenizer. The homogenate was centrifuged at 120,000×g for 60 min at 4° C., and the supernatant was collected and analyzed for Ab1-x using immunoassay with chemiluminescent detection (Meso-Scale Discovery, Rockville, Md. (MSD)).
Streptavidin 96-well plates (MSD) were pre-blocked with 5% Blocker A solution (MSD) for 1 hr at rt on an orbital shaker and washed 4 times with phosphate buffered saline (PBS). The wells were pre-coated with 20 ng/well of biotinylated antibody SIG-39155 (Clone M3.2, specific for amino acids 10-15 of the rodent Aβ) for 1 hr at rt and washed 4 times with PBS. For Aβ1-x analysis, 25 μl of either the cleared brain lysates or Aβ1-40 standards (8-500 pg/ml, with 2× increment) were incubated for 1 hr at rt with constant shaking. The wells were washed 4 times with PBS, and 25 μl of the detection antibody (Sulfo-TAG labeled anti-Aβ40 antibody supplied by MSD) was added and incubated for 1 hr at rt. After 4 washes with PBS, 150 μl of the chemiluminescence detection reagent (Read Buffer T, MSD) was added, and the plate was read on an MSD Sector Imager 6000 instrument. The calibration curve was fit into a non-linear four-parameter regression model, and the Aβ1-x concentrations were calculated for each well containing the cleared brain lysates. The percent of Aβ lowering was calculated based on the difference with the average Aβ concentration obtained for the brains from the animals treated with vehicle alone.

truncated human beta-secretase, BACE1 (amino acids 1-454), sequence (P56817 22-454): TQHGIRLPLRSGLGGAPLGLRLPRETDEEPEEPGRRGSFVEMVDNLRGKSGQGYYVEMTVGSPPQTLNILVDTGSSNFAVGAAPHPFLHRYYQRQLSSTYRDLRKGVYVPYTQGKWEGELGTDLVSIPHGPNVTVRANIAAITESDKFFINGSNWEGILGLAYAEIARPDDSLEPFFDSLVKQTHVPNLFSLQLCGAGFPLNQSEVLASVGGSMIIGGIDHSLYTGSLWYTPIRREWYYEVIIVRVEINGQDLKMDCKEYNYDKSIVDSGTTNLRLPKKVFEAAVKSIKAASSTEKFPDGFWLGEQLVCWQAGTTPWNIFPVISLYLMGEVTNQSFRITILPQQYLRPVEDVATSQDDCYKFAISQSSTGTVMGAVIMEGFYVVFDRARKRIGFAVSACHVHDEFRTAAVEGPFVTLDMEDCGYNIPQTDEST

Compound	IC50 [1]	% Aβ Reduction ([2]; single oral dose 25 mg/kg)	% Aβ Reduction ([2]; single oral dose 30 mg/kg)	% Aβ Reduction ([2]; single oral dose 50 mg/kg)	% Aβ Reduction ([2]; single oral dose 12.5 mg/kg)
CO[C@H]1[C@H](C)C[C@@]2(Cc3ccc(C#N)cc3[C@]23N=C(N)N(C[C@@H]2CCO2)C3=O)C[C@@H]1C (stereo in doubt) [Example 18]	9 nM	56%			
CC[C@@H]1C[C@]2(CC[C@H]1OC)Cc1ccc(C#N)cc1[C@]21N=C(N)N(CC2CCOCC2)C1=O [Example 2]	8 nM		42%		
CC[C@@H]1C[C@]2(CC[C@H]1OC)Cc1ccc(C#N)cc1[C@]21N=C(N)N(CC2(F)CCOCC2)C1=O [Example 4]	5 nM	75%			
CO[C@H]1CC[C@@]2(Cc3ccc(C#N)cc3[C@]23N=C(N)N(CC2(C)COC2)C3=O)C[C@@H]1C [Example 8]	5 nM	37%			
CO[C@H]1CC[C@@]2(Cc3ccc(C#N)cc3[C@]23N=C(N)N(Cc2ccncn2)C3=O)C[C@@H]1C [Example 9]	9 nM	37%			
CO[C@H]1[C@H](C)C[C@@]2(Cc3ccc(C#N)cc3[C@]23N=C(N)N(C2COC2)C3=O)C[C@@H]1C [Example 12]	3 nM	39%			
CO[C@H]1[C@H](C)C[C@@]2(Cc3ccc(C#N)cc3[C@]23N=C(N)N(CC2COC2)C3=O)C[C@@H]1C [Example 13]	9 nM		47%		
CO[C@H]1[C@H](C)C[C@@]2(Cc3ccc(C#N)cc3[C@]23N=C(N)N(C[C@H]2CCCO2)C3=O)C[C@@H]1C [Example 14]	5 nM	67%			
CO[C@H]1[C@H](C)C[C@@]2(Cc3ccc(C#N)cc3[C@]23N=C(N)N(C[C@@H]2CCCO2)C3=O)C[C@@H]1C [Example 15]	11 nM	62%			
CO[C@H]1[C@H](C)C[C@@]2(Cc3ccc(C#N)cc3[C@]23N=C(N)N(CC(C)(C)F)C3=O)C[C@@H]1C [Example 17]	14 nM	70%			
CO[C@H]1[C@H](C)C[C@@]2(Cc3ccc(C#N)cc3[C@]23N=C(N)N(C[C@@H]2COCCO2)C3=O)C[C@@H]1C [Example 21]	5 nM			59%	
CO[C@H]1[C@H](C)C[C@@]2(Cc3ccc(C#N)cc3[C@]23N=C(N)N(C[C@H]2COCCO2)C3=O)C[C@@H]1C [Example 22]	8 nM				45%
CO[C@H]1[C@H](C)C[C@@]2(Cc3ccc(C#N)cc3[C@]23N=C(N)N(CC2(F)CCOCC2)C3=O)C[C@@H]1C [Example 23]	12 nM	68%			
CC[C@@H]1C[C@@]2(Cc3ccc(C#N)cc3[C@]23N=C(N)N(CC(C)(C)F)C3=O)C[C@H](C)[C@H]1OC [Example 26]	9 nM	71%			
